Each structure is given as a SMILES string. In brackets after ≈: the same amount, converted by molar mass.

What all share (assay type): functional
The test system of one assay is A549. Kind of assay: Cytotoxicity against human A549 cells after 6 days by MTT assay. Conditions: A549, 144 h, read-out: ED50 (the source's name).
Another assay relates to HT-29. As to the kind of experiment: Cytotoxicity against human HT-29 cells after 6 days by MTT assay. The following applies: HT-29, 144 h, read-out: ED50 (the source's name).
In another assay the test system is KB. As to the kind of experiment: Cytotoxicity against human KB cells after 3 days by MTT assay. The following applies: 72 h, read-out: ED50 (the source's name). Background: Formazan colour is commonly taken as a measure of viable cells.
For the next assay, the system named is P388. As to the kind of experiment: Cytotoxicity against mouse P388 cells after 3 days by MTT assay. Conditions: P388, 72 h, read-out: ED50 (the source's name).

With `C=C1C(=O)O[C@@H]2[C@H]1[C@H](OC(C)=O)C/C(C)=C/C[C@H](OC(C)=O)/C(C)=C/C[C@@H](OC(C)=O)[C@]1(C)O[C@@H]21` [CRASSOLIDE], the EC50 came to 0.39 µg/mL (≈ 0.795 µM) in the assay on A549, 0.26 µg/mL (≈ 0.53 µM) in the assay on HT-29, 0.85 µg/mL (≈ 1.73 µM) with KB and 0.08 µg/mL (≈ 0.163 µM) in the assay on P388.
For the compound `C=C1C(=O)O[C@@H]2[C@H]1[C@@H](OC(C)=O)C/C(C)=C/[C@@H](OC(C)=O)C/C(C)=C/CC[C@@]1(C)O[C@H]21` [LOBOMICHAOLIDE], the EC50 in the assay on A549 stood at 0.38 µg/mL (≈ 0.879 µM); in the assay with HT-29, 0.37 µg/mL (≈ 0.855 µM); in the assay with KB, 0.59 µg/mL (≈ 1.36 µM); in the assay on P388, 0.34 µg/mL (≈ 0.786 µM).
